Test results as given in publication PMC6511062, “Preclinical candidate for the treatment of visceral leishmaniasis that acts through proteasome inhibition” (Proceedings of the National Academy of Sciences of the …, 2019).

Tests used:
[1] = test system: L. donovani axenic amastigotes; assay: Axenic amastigote rate-of-kill assay; assay type: cell-based, Leishmania donovani
Method: T. cruzi4, Leishmania donovani axenic amastigote, cidal axenic amastigote and intra-macrophage drug sensitivity assays were conducted as previously described5,6.
The rate of kill of compound 8 was determined in axenic amastigotes using the previously described cidal axenic assay5, with one minor modification. Instead of a single readout at 72 h, multiple identical plates were used and read at different time points (24, 48, 72 h). Rate of kill curves showing the luminescence signal at each time point for each concentration were plotted.
5. Intrinsic clearance (CLint)
Test compound (0.5 µM) was incubated with female CD1 mouse liver microsomes (Xenotech LLC TM; 0.5 mg/mL 50 mM potassium phosphate buffer, pH7.4) and the reaction started with addition of excess NADPH (8 mg/mL 50 mM potassium phosphate buffer, pH7.4). Immediately, at time zero, then at 3, 6, 9, 15 and 30 minutes an aliquot (50 µL) of the incubation mixture was removed and mixed with acetonitrile (100 µL) to stop the reaction. […]
XLfit (idbs, UK) was used to calculate the exponential decay and consequently the rate constant (k) from the ratio of peak area of test compound to internal standard at each time-point. The rate of intrinsic clearance (CLint) of each test compound was then calculated using the following calculation: […]
Amastigote levels (as RLU, relative luminescence units) for each tested concentration plotted against time. […]

[2] = test system: L. donovani promastigotes; assay: Cell cycle (FACS) analysis, L. donovani promastigotes; assay type: cell-based, Leishmania donovani; details: 5x EC50
Method: (§1) consisted of 1 µL (40 ng) of cDNA, 10 µL of Brilliant III Ultra-Fast QPCR Master Mix (Agilent Technologies), 1 µL (500 nM) each of the forward and reverse primers, and 0.3 µl (30 nM) of reference dye and nuclease-free PCR grade-treated water. PCR was performed using an Agilent Mx3005P machine with the following cycling conditions:
(§2) 95°C for 3 min; 40 cycles of 95°C for 20 s; then 60 °C for 20 s. The reference gene TERT (Tb927.11.10190, telomerase reverse transcriptase) was used to provide a baseline of transcription levels for normalization of the data. Relative quantification in the tetracycline-induced cell lines were normalized to the un-induced cell line using the […]
(§3) h. Morphological analysis […]
(§4) Cultures of bloodstream T. brucei and L. donovani promastigotes at starting cell densities of 5 x 105 were incubated with concentrations of compound 7 equivalent to 5x their respective EC50 values. […] After washing, cell densities were adjusted to 5 × 10^5 cells mL, re-suspended in 500 µL of PBS containing 50 µg/mL propidium iodide, 50 µg/mL RNase and 0.1% Triton X-100, incubated at room temperature for 20 min in the dark and analysed using FACSort analytical flow cytometer using Cellquest software (BD Biosciences). j. […]

bloodstream T. brucei = assay: Cell cycle (FACS) analysis, bloodstream T. brucei; assay type: cell-based, Trypanosoma brucei; details: 5x EC50
Method: as §1, §2, §3, §4

Compound | minimum concentration inducing parasite cell death ([1]; after 72 h) | time to kill ([1]; as compound concentrations were increased) | effect on cell cycle progression [2] | effect on cell cycle progression (bloodstream T. brucei)
O=C(Nc1ccc(F)c(-c2ccn3c(N4CCOCC4)cnc3n2)c1)N1CCCC1 [Compound 8] | 620 nM | 48 h | – | –
O=C(Nc1ccc(F)c(-c2cn3nc(-c4ccccc4)cnc3n2)c1)N1CCCC1 [Compound 7] | – | – | accumulation of cells in G2/M | accumulation of cells in G2/M
